Source: paper PMC12145446, “Development of an AI model for DILI-level prediction using liver organoid brightfield images” (Communications Biology, 2025)
“And” between values parts separate entries of the source, which are not always exact repeats. Equal entries are not always repeated. “Also recorded” adds a separate entry of the source.

Key:
[1] = peak serum concentration used as dosing reference; source not given; cited from earlier work
[2] = cited from earlier work; for Label section / Severity class: DILIrank; for Label section: FDA drug label section; for DILIrank: FDA DILIrank category based on clinical data
[3] = test system: human liver organoids (HLOs); experiment: Cellular viability (ATP, CellTiter-Glo) in the DILI toxicity test on human liver organoids; assay type: cell-based; settings: 10*Cmax; for ATP inhibition, significance vs 0*Cmax: liver organoids, Supplementary Fig. 2, peer review file
Method: (§1) All experiments were performed using HLOs derived from a single donor tissue. For each assay, three technical replicates were analyzed, corresponding to three independently cultured wells seeded with organoids. For passage, the following embedding method was used: HLOs were enzymatically or mechanically fragmented (with pre-cold phosphate-buffered saline (PBS)) and reseeded in new Matrigel. Specifically, the pre-cold Matrigel/cell mixture is seeded in 24-well plates at 30 μL/well to enable the formation of dome-shaped structures. Incubation in the cell incubator (37 °C, 5% CO2) for 15 min is required for Matrigel polymerization. After solidification, 500 μL of specific medium is added and later renewed at specific intervals.
(§2) The peak serum concentration (Cmax) can intuitively reflect the actual presence level of a drug in the body’s circulatory system. […] On this basis, we selected 10*Cmax as the reference concentration, taking into account the coefficient of variation in toxicology (individual variability: tenfold). […] Each drug was tested in triplicate. Plates were dosed with the drug for 72 h in each cycle (referred to as Day 0 through Day 3). […] At the end of day 3, the supernatant from each well was collected to determine ALB secretion, and the spheroids from each well were used for the cell viability assay.
CellTiter-Glo (CTG, G9681, PROMEGA) reagent and culture medium were added to each well in a 1:1 ratio. The contents were mixed for 2 min to induce cell lysis. The plate was incubated at room temperature for 10 min to stabilize the luminescent signal. Recording of luminescence was carried out with BioTek Microplate Reader Synergy H1 (Vermont, USA).

[4] = test system: human liver organoids (HLOs); experiment: ALB secretion (Human Albumin ELISA) in the DILI toxicity test on human liver organoids; assay type: cell-based; settings: 10*Cmax; for ALB inhibition, significance vs 0*Cmax: liver organoids, Supplementary Fig. 1
Method: as §1, §2
The culture supernatants were collected and stored at −80 °C until use. The supernatant was assayed with a Human Albumin ELISA Kit (PROTEINTECH, KE00076). Assays were performed according to the manufacturer’s instructions.

[5] = test system: human liver organoids (HLOs); experiment: Brightfield morphology of dosed human liver organoids; assay type: cell-based; settings: 10*Cmax
Excerpt: To explore the suitability of liver models with varying levels of complexity for DILI toxicity testing platforms, we established a single-type cell 3D model (HepG2 spheroid) and a multi-type cell 3D model (liver organoid). Specifically, HepG2 spheroids and HLOs were each exposed to 30 compounds with or without hepatotoxicity. The levels of ALB from the supernatant and cellular activity (ATP) from the spheres were further assessed at the end of Day 3 to validate the reliability of the system (Figs. 2b, d, f and 3b, d, f). […] The brightfield images across different time series and different z-axis orientations were collected daily to generate image data for morphological analysis (Supplementary Figs. 5 and 6).
as §2

SMILES | Cmax [1] [ng/mL] | Label section [2] | Severity class [2] | DILIrank [2] | further results
Cc1c(C)c2c(c(C)c1O)CCC(C)(COc1ccc(CC3SC(=O)NC3=O)cc1)O2 (stereo not shown) [Troglitazone] | 2820 | Withdrawn | 8 | vMost-DILI-Concern | –
C[C@H]1O[C@@H](O[C@H]2[C@@H](O)C[C@H](O[C@H]3[C@@H](O)C[C@H](O[C@H]4CC[C@@]5(C)[C@H](CC[C@@H]6[C@@H]5C[C@@H](O)[C@]5(C)[C@@H](C7=CC(=O)OC7)CC[C@]65O)C4)O[C@@H]3C)O[C@@H]2C)C[C@H](O)[C@@H]1O [Digoxin] | 2.21 | – | – | – | ATP inhibition, significance vs 0*Cmax [3]: significant; ALB inhibition, significance vs 0*Cmax [4]: significant
C[C@H]1COc2c(N3CCN(C)CC3)c(F)cc3c(=O)c(C(=O)O)cn1c23 [Levofloxacin] | 5700 | – | – | vMost-DILI-Concern | –
O=C(O)Cc1ccccc1Nc1c(Cl)cccc1Cl [Diclofenac] | – | Warnings and precautions | 8 | vMost-DILI-Concern | –
NNC(=O)c1ccncc1 [Isoniazid] | 10500 | Box warning | 8 | vMost-DILI-Concern | ATP inhibition, significance vs 0*Cmax [3]: did not show a significant difference; ALB inhibition, significance vs 0*Cmax [4]: did not show a significant difference
COc1cc2ncnc(Nc3ccc(F)c(Cl)c3)c2cc1OCCCN1CCOCC1 [Gefitinib] | 200 | – | – | – | Brightfield morphology changes of HLOs ([5]; Day 0 to Day 3): underwent cell death, failed to maintain their original spherical structure, and disintegrated by the end of Day 3; also recorded: started to undergo significant cell death and structural disintegration
CCc1oc2ccccc2c1C(=O)c1cc(Br)c(O)c(Br)c1 [Benzbromarone] | 1840 | Withdrawn | 8 | vMost-DILI-Concern | –
CN(C)CCC(c1ccc(Cl)cc1)c1ccccn1 (stereo not shown) [Chlorpheniramine] | 140 | No match | 0 | vNo-DILI-Concern | Brightfield morphology changes of HLOs ([5]; Day 0 to Day 3): still increased in diameter and developed into a typical translucent hollow sphere with clear boundaries; Brightfield morphology changes of HLOs ([5]; Day 0 to Day 3, listed as Chlorphenamine): still grew significantly; ATP inhibition ([3]; human liver organoids, end of Day 3 (72 h), individual replicates n = 3, listed as Chlorphenamine): 13% and 9% and -14%; DILI level label by DILIrank ([2]; label as worded in text and figure legends): No-DILI; ALB inhibition ([4]; human liver organoids, end of Day 3 (72 h), individual replicates n = 3, unit from Fig. S1 legend, listed as Chlorphenamine): 1% and 9%
C#Cc1cccc(Nc2ncnc3cc(OCCOC)c(OCCOC)cc23)c1 [Erlotinib] | 1200 | Warnings and precautions | 8 | vMost-DILI-Concern | –
CC(c1cc2ccccc2s1)N(O)C(N)=O (stereo not shown) [Zileuton] | 3100 | Warnings and precautions | 5 | vMost-DILI-Concern | –
CCN(CC)C(=O)/C(C#N)=C/c1cc(O)c(O)c([N+](=O)[O-])c1 [Entacapone] | 1000 | No match | 0 | vLess-DILI-Concern | –
O=C1CC2(CCCC2)CC(=O)N1CCCCN1CCN(c2ncccn2)CC1 [Buspirone] | 1.92 | Adverse reactions | 3 | Ambiguous DILI-concern | –
Cc1cn([C@H]2C=C[C@@H](CO)O2)c(=O)[nH]c1=O [Stavudine] | 776.4 | Box warning | 8 | vMost-DILI-Concern | –
CC(=O)O[C@H]1C(=O)[C@@]2(C)[C@H]([C@H](OC(=O)c3ccccc3)[C@]3(O)C[C@H](OC(=O)[C@H](O)[C@@H](NC(=O)c4ccccc4)c4ccccc4)C(C)=C1C3(C)C)[C@]1(OC(C)=O)CO[C@@H]1C[C@@H]2O [Paclitaxel] | 600 | Adverse reactions | 4 | vLess-DILI-Concern | –
CC(C)C(=O)Nc1ccc([N+](=O)[O-])c(C(F)(F)F)c1 [Flutamine] | 100 | Box warning | 8 | vMost-DILI-Concern | –
Cc1nc(Nc2ncc(C(=O)Nc3c(C)cccc3Cl)s2)cc(N2CCN(CCO)CC2)n1 [Dasatinib] | 129 | Adverse reactions | 4 | vLess-DILI-Concern | –
CCc1nn(CCCN2CCN(c3cccc(Cl)c3)CC2)c(=O)n1CCOc1ccccc1 [Nefazodone] | 434.9 | Box warning | 8 | vMost-DILI-Concern | –
CS(=O)(=O)Nc1ccc([N+](=O)[O-])cc1Oc1ccccc1 [Nimesulide] | 6500 | Withdrawn | 8 | vMost-DILI-Concern | –
CCN(CC)CC(=O)Nc1c(C)cccc1C [Lidocaine] | – | No match | 0 | – | –
Cc1ccc(C(=O)c2cc(O)c(O)c([N+](=O)[O-])c2)cc1 [Tolcapone] | 13000 | Box warning (withdrawn) | 8 | vMost-DILI-Concern | –
CN(C)CCOC(c1ccccc1)c1ccccc1 [Diphenhydramine] | – | No match | 0 | – | –
CCc1ccc(CCOc2ccc(CC3SC(=O)NC3=O)cc2)nc1 (stereo not shown) [Pioglitazone] | 1050 | Warnings and precautions | 3 | vLess-DILI-Concern | –
COc1ccccc1Oc1c(NS(=O)(=O)c2ccc(C(C)(C)C)cc2)nc(-c2ncccn2)nc1OCCO [Bosentan] | 2286 | Box warning | 7 | vMost-DILI-Concern | –
CN(Cc1cnc2nc(N)nc(N)c2n1)c1ccc(C(=O)N[C@@H](CCC(=O)O)C(=O)O)cc1 [Methotrexate] | 351 | Box warning | 3 | vMost-DILI-Concern | –
CC[C@]1(O)C[C@@H]2CN(CCc3c([nH]c4ccccc34)[C@@](C(=O)OC)(c3cc4c(cc3OC)N(C)[C@H]3[C@@](O)(C(=O)OC)[C@H](OC(C)=O)[C@]5(CC)C=CCN6CC[C@]43[C@@H]65)C2)C1 [Vinblastine] | 28 | – | – | – | ATP inhibition, significance vs 0*Cmax [3]: significant; ALB inhibition, significance vs 0*Cmax [4]: significant
CC(=O)Nc1ccc(O)cc1 [Acetaminophen] | – | Warnings and precautions | – | – | –
